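Growth conditions: 96-well plates. Treatment: test compound, 48 hours, 5 concentrations. Analysis: linear interpolation between bracketing concentrations; unreached endpoints set to highest concentration. GI50 marks 50% less growth. The concentration for full growth arrest is given as TGI.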
Tests used:
Test in all cases: growth of human tumour cells (NCI), 48 h
SF-539 CNS = system: SF-539 CNS
NCI-H460 lung = system: NCI-H460 lung
786-0 renal = system: 786-0 renal
SK-OV-3 ovarian = system: SK-OV-3 ovarian
NCI-H23 lung = system: NCI-H23 lung
M14 melanoma = system: M14 melanoma
SN12C renal = system: SN12C renal
SR leukemia = system: SR leukemia
UACC-62 melanoma = system: UACC-62 melanoma
U251 CNS = system: U251 CNS

Compound	TGI (SF-539 CNS) [µM]	TGI (NCI-H460 lung) [µM]	TGI (786-0 renal) [µM]	TGI (SK-OV-3 ovarian) [µM]	TGI (NCI-H23 lung) [µM]	TGI (M14 melanoma) [µM]	TGI (SN12C renal) [µM]	TGI (SR leukemia) [µM]	TGI (UACC-62 melanoma) [µM]	TGI (U251 CNS) [µM]	GI50 (SF-539 CNS) [µM]	GI50 (NCI-H460 lung) [µM]	GI50 (SK-OV-3 ovarian) [µM]	GI50 (NCI-H23 lung) [µM]	GI50 (M14 melanoma) [µM]	GI50 (SN12C renal) [µM]	GI50 (UACC-62 melanoma) [µM]	GI50 (U251 CNS) [µM]	GI50 (SR leukemia) [µM]
CCc1ccccc1NNc1cc(=O)[nH]c(=O)[nH]1	52.2	52.6	32.5	64.8	> 100	35.1	39	> 100	35.9	31.2									
C=CCOCn1cc(C)c(=O)[nH]c1=O	> 100	> 100	> 100	> 100	> 100	> 100	> 100	> 100	> 100										
O=C(OCC(Cl)(Cl)Cl)O[C@@H]1CCCC1(c1ccccc1)c1ccccc1		> 100	> 100	> 100	> 100	> 100	> 100	> 100	> 100	> 100									
Cc1cc(=O)[nH]c(NN2C(Cl)C(=O)C2c2cccc(Cl)c2)n1 (stereo not given)	39.4	43.2			58.2	35.4	62	44.3	87.2	> 100									
O=C(NNc1nc(-c2ccccc2)cs1)C(F)(F)F		> 100	> 100	> 100	> 100	> 100	> 100	> 100	> 100	98.7									
CCOC(=O)N(c1ccccc1)N(CC)C(=O)/C(C)=N/Nc1ccc([N+](=O)[O-])cc1	30		33.4	37.1	36.1	31.7	31.4	69.3	26.8	28.2									
COc1cc2nc(-c3cccs3)[nH]c(=O)c2cc1OC	> 100	> 100	> 100	> 100	> 100	> 100	> 100	58.4	> 100	> 100									
Cc1ccc(NC(=O)C(=O)CC(=O)c2sc(Nc3c(C)cccc3C)nc2C)cc1C	> 100	> 100	> 100	> 100	> 100	> 100	> 100	> 100	> 100	> 100									
N#C/C(=C/NC(=S)c1ccncc1)C(N)=O	> 100	> 100	> 100	> 100	> 100	> 100	> 100		> 100	> 100									
O=c1[nH]cnc2c1nnn2CCCCCCCCCCCCn1nnc2c(=O)[nH]cnc21	54.6	> 100	60.5	38.5	39.2	> 100	> 100	> 100	> 78	52.8									
COc1ccc(C(C2=C(O)COC2=O)c2cc3c(cc2O)OCO3)cc1OC (stereo not given)	> 100	> 100	> 100	> 100		> 100	> 100	> 100	> 100										
S=C(Nc1ccc2cn[nH]c2c1)Nc1ccc2cn[nH]c2c1	> 100	> 100	> 100	> 100	> 100	> 100	> 100	> 100	> 100	> 100									
CC(C)(C)OC(=O)NCCCCC(NC(=O)c1ccccc1)C(N)=O (stereo not given)	> 100	> 100	> 100	> 100	> 100	> 100	> 100		> 100	> 100									
CC(C)(C)N(Cc1ccc2c(c1)OCO2)C(=O)/C=C\Sc1ccccc1	> 100		> 100	> 100	> 100	> 100	> 100	> 100	> 100	> 100									
CCOC(=O)C1=C(C)N(c2ccc(OC)cc2)C2(O)C=CC(=O)C3=C(O)c4ccccc4C(=O)C312 (stereo not given)	21.2	28		31.1	37.4	21.8	30.2		26.4	23.5									
C[Si](C)(c1ccccc1)[C@H]1CCCC=C1CCNC1c2ccccc2CCc2ccccc21	> 100	> 100	> 100	> 100	> 100	> 100	> 100	> 100	> 100	> 100									
O=C1Nc2ccccc2Nc2ccncc21	> 100	> 100		> 100	> 100		> 31.6		> 100	> 100									
CC(=O)[CH-]C(=O)c1ccccc1.CC(=O)[CH-]C(=O)c1ccccc1.C[C@]12CCC(=O)C=C1CC[C@@H]1C2CC[C@@]2(C)C1CC[C@]2(C)[O-].C[C@]12CCC(=O)C=C1CC[C@@H]1C2CC[C@@]2(C)C1CC[C@]2(C)[O-].Cl.[Ti+4] (stereo not given in full)	29.3	49.9		53.1	35.2	83.6	49.5		42.9	54.2	13.9	16.4	23.4	14.2	24.2	18.7	12.8	15.2	
O=C(CCc1ccccc1)ON1C(=S)C(c2ccccc2)(c2ccccc2)N=C1Sc1ccccc1	> 100	> 100	> 100	> 100	> 100	> 100	> 100		> 100										
O=C1C(CN2CCOCC2)CCCC1CN1CCOCC1 (stereo not given)	7.45	49	2.61	51.8	16.9	7.1	7.71	> 100	14.5	45									
COc1cc(-c2ccccc2N)c2cccnc2c1OC	21.6	43.4	14.9	21.9	19.6	19.3	17.3	7.25	24.2	17.7									
C[C@@H]1S[C@H](c2c(Cl)cccc2Cl)N2Cc3ccccc3N=C12	> 100	> 100	> 100	> 100	> 100	> 100	> 100	> 100	> 100	> 100									
CN(C)c1cccc(NC2=NCCO2)c1	> 100	> 100	> 100		85.3	> 100	> 100	99.6	> 100	> 100									

Compound	TGI (SF-539 CNS) [µM]	TGI (NCI-H460 lung) [µM]	TGI (786-0 renal) [µM]	TGI (SK-OV-3 ovarian) [µM]	TGI (NCI-H23 lung) [µM]	TGI (M14 melanoma) [µM]	TGI (SN12C renal) [µM]	TGI (SR leukemia) [µM]	TGI (UACC-62 melanoma) [µM]	TGI (U251 CNS) [µM]	GI50 (SF-539 CNS) [µM]	GI50 (NCI-H460 lung) [µM]	GI50 (SK-OV-3 ovarian) [µM]	GI50 (NCI-H23 lung) [µM]	GI50 (M14 melanoma) [µM]	GI50 (SN12C renal) [µM]	GI50 (UACC-62 melanoma) [µM]	GI50 (U251 CNS) [µM]	GI50 (SR leukemia) [µM]
COc1ccc(/C=C/C2=NN(c3cccc(S(=O)(=O)O)c3)C3(C2)SCC(=O)N3c2nc3ccccc3s2)cc1 (stereo not given)	> 100	> 100	> 100		> 100	> 100	> 100	> 100	> 100	> 100									
Oc1[nH]c2ccccc2c1/C=c1/cc2c(c(-c3ccc(F)cc3)n1)=Nc1ccccc1-2	1.81			3.15	3.11	1.41	3.88	2.49		2.17	0.477		0.848	1.16	0.315	1.38		0.94	0.306
Cc1ccccc1NC(=O)Cc1csc2[n+]1C(=O)/C(=C/c1ccc([N+](=O)[O-])cc1)S2	> 100	88	> 100	> 100	84.3	> 100	> 100			> 100									
Cc1nc2ccccc2c(/C=C/c2ccc(Cl)cc2)c1C(=O)/C=C/c1ccc(Cl)cc1	3.14	3.15						> 100	3.27	3.03	1.71	1.41					1.59	1.39	0.609
COc1ccc(C(OCC2OC(n3ccc(NC(=O)c4ccccc4)nc3=O)CC2OP2(=S)SCCS2)(c2ccccc2)c2ccc(OC)cc2)cc1 (stereo not given)		> 100	82	64.2	> 100	66.2	58.6	> 100	34.9	86.5									
COc1ccc2oc(=O)c(-c3csc(C)n3)cc2c1	57	> 100	> 100	87.3		> 100	> 100	> 100	73.1	60.9									
Cc1c(/C=N/N(C)C)oc2c1cc(O)c1ncccc12		41	> 100	71.7	> 100	14.9	96.4	40.4	45.9	> 100									
NNC(=O)c1cc(=O)[nH][nH]1	> 100	> 100	> 100	> 100	> 100	> 100	> 100		> 100	> 100									
CCOc1cc(NC(C)=O)ccc1C(=O)NN1C(=O)CSC1c1ccccc1 (stereo not given)	> 100	> 100	> 100	> 100	> 100	> 100	> 100	> 100	> 100										
CN1c2ccccc2N(C(=O)c2ccccc2)C(CC(=O)O)c2cccn21 (stereo not given)	> 100	> 100	> 100	> 100	> 100	> 100	> 100		> 100	> 100									
c1cnc(N2CCN(Cc3c[nH]c4ccccc34)CC2)nc1	67	> 100	31.9	> 100	> 100	> 100	> 100		> 100	> 100									
CC(=O)N(O)c1ccc(-c2nc3ccccc3s2)cc1		> 100	> 100		> 100	> 100	> 100	> 100	> 100	> 100									
NC(Cc1ccc(S(=O)(=O)O)cc1)C(=O)NC(Cc1ccc(S(=O)(=O)O)cc1)C(=O)O (stereo not given)	> 100	> 100	> 100		> 100	> 100	> 100		> 100	> 100									
CC(=N\N)/C(C)=N/N=C(C)/C(C)=N/N=C(C)/C(C)=N/N	> 100	> 100	> 100	> 100	> 100	> 100	> 100	> 100		> 100									
CC(=O)N1CCn2c1nc1cc(Cl)ccc12	> 100	> 100	> 100	68		> 100	> 100	> 100	> 100	> 100									
Cc1nc2c(=S)n(C)ncc2[nH]1	> 100		> 100	> 100	> 100	> 100	> 100		> 100	> 100									
CC1=NC(=Cc2ccc([N+](=O)[O-])cc2)C(=O)N1n1c(-c2ccccc2)nc2ccccc2c1=O	> 100		> 100	> 100	81.2	> 100	> 100	> 100	> 100										
CC1C(c2ccc(Cl)cc2)c2cc3c(cc2OC1N1CCOCC1)OCO3 (stereo not given)	> 100	> 100	> 100		> 100	> 100	> 100	17.9	> 100										
COc1ccc(/C=N/n2cnc3[nH]c(C)c(Cc4ccccc4)c3c2=N)cc1		> 100	> 100	> 100	> 100	> 100	> 100	> 100	> 100	> 100									
CC1(C)C(=O)C(C)(C)C1=S		> 100	> 100	> 100	> 100	> 100	> 100	> 100	> 100	> 100									
CN(C)c1cc[n+](-c2nc(/N=C(\[O-])C(F)(F)F)nc3c2ncn3C2CC(O)C(CO)O2)cc1 (stereo not given)	> 100	> 100	> 100	> 100	> 100	> 100	> 100		> 100	> 100									
CC1CC(=O)N(N(C)C)C(C#N)(C#N)C1(C#N)C#N (stereo not given)	59.1		28.6	> 64.9	43.8	42.9	37	30.7	39.3	42.4									

Source: PubChem BioAssay (NCI)
